Several values for one entry are separate records, joined by “and”; a condition that tells them apart may be missing. Equal entries are not always repeated. Residues, ends and D or L forms follow the SMILES beside them.
Key:
[1] = AF-16 concentration in plasma after intranasal or i.v. administration (Bachem AF-16 Enzyme Immunoassay); type: in vivo, rat; conditions: for Concentration of AF-16 in plasma: experimental rats (cryogenic brain injury); for Concentration of AF-16 in plasma / level at 0.5 h: sample 30 min after dosing, enzyme immunoassay, mean ± SEM; for level at 0.5 h: male, Sprague-Dawley, rat, plasma, control (uninjured) rats
Method: (§1) The test protocol was approved by the Regional Animal Experiments Ethical Committee and performed in accordance with guidelines for animal experiments (EC Directive 86/609/EEC). Male Sprague–Dawley rats, 180 ± 20 g body weight (Nova-SCB, Sollentuna, Sweden) were used. The rats were allowed a week for general adaptation in their cages before any form of experimental procedure was performed. All rats had free access to water and pelleted food during the whole experimental period. The temperature and air ventilation in the animal quarters were monitored according to standard procedures.
(§2) The operation procedure started with general anaesthesia via inhalation of Isoflurane (4 % induction, 1.5–2 % maintenance in air), after which the anaesthetised rat was positioned on the abdomen on a heating pad. The body temperature was monitored via a rectal thermo-coupled probe, and a heated blanket was placed underneath the rat in order to keep the temperature at 37 °C. The head was shaved and the skin washed with 70 % alcohol, followed by a subcutaneous injection of Marcaine. A 3– to 4-cm-long midline incision was made through the skin and fascia on the skull vault. The skull bone was freed from adherent connective tissue and a copper rod (144 g) with a tip diameter of 4 mm was immersed in liquid nitrogen and then applied to the right parietal bone for 90 s. […] The resulting lesion volume was calculated after termination of the experiments (see below). Uninjured rats were used as controls.
(§3) Rats were anaesthetised with Isoflurane 24 h after the cryogenic brain injury. The rats were given a single dose of 25 μl of AF-16 (2,000 μg/ml in phosphate buffered saline, PBS) or ^14C-AF-16 in each nostril and were then placed on their backs to make sure the AF-16 solution was absorbed appropriately. After 5–8 min they had recovered from anaesthesia, were fully awake and moved freely in the cage. Control, injured rats received the same volume of vehicle (PBS) only. ICP recordings for statistical calculations were collected for a 20-min-long period, starting after the animals were fully awake and the ICP values were stable and back to pre-anaesthesia levels.
(§4) The collection of blood and CSF was done in a separate set of experiments. ^14C-Labelled or unlabelled AF-16 was given by intranasal (see above) or i.v. administration via the penis vein (25 μl in a volume of 0.5 ml). For measurement of blood concentration of AF-16 the heart was punctured from the right thoracic cavity with an O.D. 1.22/60 mm injection needle. When 10–12 ml of blood had been collected, the thorax was opened and the rats were terminated by removing the heart. Immediately after termination, the rats were placed on the abdomen. For measurement of CSF levels of AF-16 the dura over cisterna magna was micro-surgically exposed by dissecting the neck muscles laterally, a procedure which uncovers the midline. The dura was subsequently punctured by a Neoflon i.v. cannula, outer diameter 0.6 mm, length 19 mm. After removing the needle from the cannula, 50–100 μl of CSF could be aspired without being contaminated with blood.
A Bachem AF-16 Enzyme Immunoassay kit (item S-1403) was used. Heparin-treated blood samples were mixed with an equal volume of Alsevers citrate solution (glucose, 0.1 M, sodium citrate 2-hydrate, 0.03 M, sodium chloride, 0.07 M). The blood samples were stored frozen for up to 1 month at −20 °C. The laboratory procedure followed Protocol III in the Bachem kit manual, but some critical points should be emphasised. The standard AF-16 was dissolved and diluted in normal blood plasma; the standards S1-S6 (0.2–200 ng/ml, corresponding to 0.114–114 nM) and normal plasma S0 were distributed into smaller aliquots (e.g. 200 μl) and frozen at −20 °C until use. The standard is not stable in buffered saline at these concentrations. […]

[2] = AF-16 concentration in CSF after intranasal or i.v. administration (estimated from radioactivity of 14C-AF-16); type: in vivo, rat; conditions: for Concentration of AF-16 in CSF: estimated from 14C radioactivity, mean ± SEM
Method: as §1, §2, §3, §4
A Bachem AF-16 Enzyme Immunoassay kit (item S-1403) was used. Heparin-treated blood samples were mixed with an equal volume of Alsevers citrate solution (glucose, 0.1 M, sodium citrate 2-hydrate, 0.03 M, sodium chloride, 0.07 M). The blood samples were stored frozen for up to 1 month at −20 °C. The laboratory procedure followed Protocol III in the Bachem kit manual, but some critical points should be emphasised. […]

[3] = Side effects of AF-16 treatment in animals; type: in vivo; conditions: experimental conditions in animals
[4] = Autoradiography of 14C-AF-16 distribution in the brain after intranasal administration; type: in vivo, rat; conditions: control uninjured rats (n = 10), one intranasal dose, 30 min, 10 μm cryosections, X-ray film
Method: The distribution of ^14C-AF-16 in the brain after intranasal administration was investigated in a separate set of experiments. Control, uninjured rats (n = 10) received one intranasal dose of ^14C-AF-16. Thirty minutes later the rats were terminated and the brains were dissected out as described above. Frontal slices were cut, about 3 mm thick, immersed in 10 % sucrose in PBS overnight and then frozen in liquid nitrogen. Cryosections, cut at 10 μm, were prepared, air dried and exposed to Biomax AR autoradiography film (Kodak).

| Change of plasma level between 15 and 30 min ([1]; normal rats, intranasal 0.3 μmol/kg, p < 0.03) | Decrease of AF-16 in CSF between 15 and 30 min ([2]; normal rats, intranasal 0.3 μmol/kg) | Molecule | Concentration of AF-16 in plasma relative to CSF ([1]; control and injured rats, 30 min after intranasal or i.v. administration) | Concentration of AF-16 in plasma ([1]; i.v. via penis vein (25 μl in 0.5 ml), n = 7) [ng/mL] | Concentration of AF-16 in plasma ([1]; intranasal (25 μl of 2,000 μg/ml in PBS in each nostril), n = 9) [ng/mL] | level at 0.5 h ([1]; inhaled or intranasal, 100 ug per rat, intranasal (25 μl of 2,000 μg/ml in PBS in each nostril), n = 9) [ng/mL] | level at 0.5 h ([1]; iv, 25 ul in a volume of 0.5 ml, i.v. via penis vein (25 μl in 0.5 ml), n = 7) [ng/mL] | Concentration of AF-16 in plasma relative to CSF ([1]; normal rats, intranasal 0.3 μmol/kg in 25 μl, 15 and 30 min after deposition) | Concentration of AF-16 in CSF ([2]; control (uninjured) rats, i.v., CSF from cisterna magna 30 min after dosing, n = 6) [ng/mL] | Concentration of AF-16 in CSF ([2]; control (uninjured) rats, intranasal, CSF 30 min after dosing, n = 9) | Concentration of AF-16 in CSF ([2]; experimental rats (cryogenic brain injury), i.v., CSF from cisterna magna 30 min after dosing, n = 7) [ng/mL] | Concentration of AF-16 in CSF ([2]; experimental rats (cryogenic brain injury), intranasal, CSF 30 min after dosing, n = 9, p = 0.01 vs control) | Side effects of treatment [3] | Distribution in the brain by autoradiography [4] |
| --- | --- | --- | --- | --- | --- | --- | --- | --- | --- | --- | --- | --- | --- | --- |
| decreased significantly | not statistically significant | CC(C)C[C@H](NC(=O)CNC(=O)[C@@H](NC(=O)[C@H](CC(N)=O)NC(=O)[C@H](CC(N)=O)NC(=O)[C@H](CCC(=O)O)NC(=O)[C@@H]1CCCN1C(=O)[C@H](CC(N)=O)NC(=O)[C@H](CO)NC(=O)[C@H](CCCNC(=N)N)NC(=O)[C@@H](NC(=O)[C@H](CCCCN)NC(=O)[C@H](CO)NC(=O)[C@H](Cc1c[nH]cn1)NC(=O)[C@H](CS)NC(=O)[C@@H](N)C(C)C)[C@@H](C)O)C(C)C)C(=O)O [AF-16] (H-VCHSKTRSNPENNVGL-OH) | about ten-times higher in plasma than in CSF | 14.5 ± 0.9 | 8.7 ± 0.5 | 7.8 ± 0.7 | 14.7 ± 0.6 | about ten-times higher in plasma than in CSF | 1.1 ± 0 | 0.6 ng/mL and 0.6 ± 0.1 ng/mL | 1.1 ± 0.1 | 1.3 ng/mL and 1.3 ± 0.2 ng/mL | No side effects | – |
| – | – | VCHSKTRSNPENNVGL [^14C-AF-16] | – | – | – | – | – | – | – | – | – | – | – | detected in the brain ventricles/choroid plexus |
